Data published in ChEMBL document CHEMBL1201862, “PubChem BioAssay data set” (2004).
Blank lines part the entries; values can stand above or below the compound they belong to. Active and inactive are the calls of the source.

Tests used:
Kallikrein-7 = Kallikrein-7 (Homo sapiens, UniProt P49862); test: Fluorescence Intensity-based biochemical primary high throughput dose response assay to identify activators of kallikrein-7 (K7) zymogen.
[1] = ADAM10 inhibitors, peptide cleavage, dose response, biochemical, QFRET (AID 743254);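 further: ADAM10 enzyme with the DM2 quenched FRET peptide as substrate; EDANS fluorescence gain as the protease cuts the substrate; inhibitor potency against ADAM10 proteolytic activity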
[2] = target: Disintegrin and metalloproteinase domain-containing protein 17 (Homo sapiens, UniProt P78536); test: ADAM17 protease inhibitors, dose response, counter-screen for ADAM10 exosite inhibitor project, biochemical, quenched FRET substrate (AID 743253)
Sequence of Disintegrin and metalloproteinase domain-containing protein 17 (P78536 whole entry, the tested form may be a part): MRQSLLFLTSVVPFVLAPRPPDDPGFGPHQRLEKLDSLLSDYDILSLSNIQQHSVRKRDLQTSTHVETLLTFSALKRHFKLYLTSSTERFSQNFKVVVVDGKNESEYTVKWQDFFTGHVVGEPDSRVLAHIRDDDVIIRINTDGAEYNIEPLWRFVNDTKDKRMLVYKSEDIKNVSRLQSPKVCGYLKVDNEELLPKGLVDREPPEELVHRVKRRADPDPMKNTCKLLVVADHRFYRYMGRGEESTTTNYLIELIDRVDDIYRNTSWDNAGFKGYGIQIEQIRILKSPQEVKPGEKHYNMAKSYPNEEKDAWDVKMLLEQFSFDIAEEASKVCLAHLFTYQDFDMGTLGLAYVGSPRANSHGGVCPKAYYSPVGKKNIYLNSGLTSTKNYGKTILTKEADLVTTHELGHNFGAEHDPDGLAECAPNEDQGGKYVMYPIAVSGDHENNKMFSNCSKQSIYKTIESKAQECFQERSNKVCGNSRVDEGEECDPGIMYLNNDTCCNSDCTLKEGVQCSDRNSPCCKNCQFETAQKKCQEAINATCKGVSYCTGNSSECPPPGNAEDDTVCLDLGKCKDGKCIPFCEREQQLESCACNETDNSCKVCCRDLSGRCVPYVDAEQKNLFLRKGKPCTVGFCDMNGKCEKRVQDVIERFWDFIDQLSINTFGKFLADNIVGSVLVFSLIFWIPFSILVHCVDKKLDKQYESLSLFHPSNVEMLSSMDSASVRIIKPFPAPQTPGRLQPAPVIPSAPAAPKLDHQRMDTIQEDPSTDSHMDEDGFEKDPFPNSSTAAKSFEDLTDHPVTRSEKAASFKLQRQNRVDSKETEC

[3] = Luminescence Cell-Based Dose Confirmation HTS to Identify Inhibitors of Platelet Dense Granule Release. [Related pubchem assays: 1663 (Primary HTS), 1678 (Summary of Project)]; type: functional
[4] = target: Luciferin 4-monooxygenase (Photinus pyralis, UniProt P08659); test: firefly luciferase enzyme inhibitors, dose response, biochemical, luminescence (AID 1891)
Sequence of Luciferin 4-monooxygenase (P08659 whole entry): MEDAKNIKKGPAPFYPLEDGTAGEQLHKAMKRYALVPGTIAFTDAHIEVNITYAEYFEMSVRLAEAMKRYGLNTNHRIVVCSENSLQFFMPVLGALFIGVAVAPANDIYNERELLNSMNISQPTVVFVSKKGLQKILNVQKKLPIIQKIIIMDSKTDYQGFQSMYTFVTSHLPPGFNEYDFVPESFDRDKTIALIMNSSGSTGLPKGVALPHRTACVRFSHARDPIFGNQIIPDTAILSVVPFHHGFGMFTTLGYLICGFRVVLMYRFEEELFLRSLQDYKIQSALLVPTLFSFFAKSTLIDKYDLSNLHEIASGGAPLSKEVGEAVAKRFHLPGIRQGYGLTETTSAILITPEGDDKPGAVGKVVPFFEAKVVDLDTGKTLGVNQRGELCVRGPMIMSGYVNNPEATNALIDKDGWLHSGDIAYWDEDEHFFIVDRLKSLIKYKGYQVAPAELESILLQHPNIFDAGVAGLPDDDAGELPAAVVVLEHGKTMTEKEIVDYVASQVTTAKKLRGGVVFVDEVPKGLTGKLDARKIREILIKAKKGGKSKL

Protein Tat = Protein Tat (Human immunodeficiency virus type 1 group M subtype B (isolate HXB2)(HIV-1), UniProt P04608); type: functional;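 further: tat binding to TAR RNA read out by fluorescence polarization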
Sequence of Protein Tat (P04608 whole entry, the tested form may be a part): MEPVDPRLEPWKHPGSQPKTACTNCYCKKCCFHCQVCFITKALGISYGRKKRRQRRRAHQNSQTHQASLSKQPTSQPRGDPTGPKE

[5] = target: T1, Oxysterols receptor LXR-beta (Homo sapiens, UniProt P55055); type: functional, cell-based;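 further: Cell-based luminescence dose-response assay of agonist activity at LXR, run as a confirmatory counterscreen to a daf-12 agonist screen; HEK293 cells with Gal4-LXR fusion and GAL4-driven luciferase reporter; agonist potency from rising luciferase signal of a Gal4-LXR reporter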
T1 sequence (P55055 whole entry): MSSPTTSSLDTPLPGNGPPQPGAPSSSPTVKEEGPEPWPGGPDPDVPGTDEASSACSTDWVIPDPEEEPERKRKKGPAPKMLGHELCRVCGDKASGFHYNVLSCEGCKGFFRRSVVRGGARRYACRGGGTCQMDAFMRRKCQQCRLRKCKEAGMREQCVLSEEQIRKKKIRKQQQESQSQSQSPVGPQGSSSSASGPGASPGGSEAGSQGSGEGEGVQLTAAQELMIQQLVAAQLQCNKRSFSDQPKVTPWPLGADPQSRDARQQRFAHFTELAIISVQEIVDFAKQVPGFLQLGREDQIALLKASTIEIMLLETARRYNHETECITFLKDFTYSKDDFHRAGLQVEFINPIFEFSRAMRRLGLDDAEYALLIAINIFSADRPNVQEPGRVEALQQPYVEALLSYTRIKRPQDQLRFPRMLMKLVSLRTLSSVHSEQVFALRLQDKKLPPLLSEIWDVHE

[6] = AlphaScreen signal interference compounds, dose response, artefact control for ARNT-TACC3 interaction inhibitor project, biochemical, luminescence, cherry-pick (AID 651705); type: functional;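 further: AlphaScreen bead proximity signal that flags compounds interfering with the detection technology; potency reflects signal decrease which marks the compound as an assay artifact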
[7] = target: T2, Probable nicotinate-nucleotide adenylyltransferase (Staphylococcus aureus (strain N315), UniProt P65502); type: functional, Staphylococcus aureus subsp. aureus N315;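 on IC50 Mean: confirmatory dose-response retesting of NadD inhibitor hits first found in an ultra-high-throughput screen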
[8] = target: T2, Probable nicotinate-nucleotide adenylyltransferase; type: functional, Staphylococcus aureus subsp. aureus N315; conditions: read-out: IC50_Mean
[9] = target: DNA repair and recombination protein RAD54-like (Homo sapiens, UniProt Q92698); test: inhibitors of human RAD54 branch migration, confirmation, biochemical, fluorescence, cherry-picked samples, dose series (AID 651657); type: functional
Sequence of DNA repair and recombination protein RAD54-like (Q92698 whole entry): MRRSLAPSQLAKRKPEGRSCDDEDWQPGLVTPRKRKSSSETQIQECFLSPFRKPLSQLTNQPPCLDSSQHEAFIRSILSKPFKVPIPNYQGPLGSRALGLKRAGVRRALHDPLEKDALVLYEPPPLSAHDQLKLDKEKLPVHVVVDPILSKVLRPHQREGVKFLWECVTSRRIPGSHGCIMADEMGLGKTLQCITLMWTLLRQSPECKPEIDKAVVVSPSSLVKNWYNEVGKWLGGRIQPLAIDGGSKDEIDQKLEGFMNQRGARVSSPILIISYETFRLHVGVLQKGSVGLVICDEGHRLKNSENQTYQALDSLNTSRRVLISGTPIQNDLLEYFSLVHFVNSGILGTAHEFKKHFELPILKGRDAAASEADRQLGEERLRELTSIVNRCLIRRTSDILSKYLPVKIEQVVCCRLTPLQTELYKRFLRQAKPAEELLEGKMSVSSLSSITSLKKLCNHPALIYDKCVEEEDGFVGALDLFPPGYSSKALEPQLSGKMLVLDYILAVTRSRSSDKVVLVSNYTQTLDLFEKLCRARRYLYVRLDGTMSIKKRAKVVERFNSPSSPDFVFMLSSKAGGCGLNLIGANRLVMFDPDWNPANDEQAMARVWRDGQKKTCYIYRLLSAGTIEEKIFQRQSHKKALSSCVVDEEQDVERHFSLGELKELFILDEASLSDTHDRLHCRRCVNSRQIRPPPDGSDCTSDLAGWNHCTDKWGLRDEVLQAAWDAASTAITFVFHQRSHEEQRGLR

[10] = target: G-protein coupled receptor 183 (Homo sapiens, UniProt P32249); test: SAR confirmation of small molecule antagonists of the EBI2 receptor via a luminescent beta-arrestin assa.; type: functional
Sequence of G-protein coupled receptor 183 (P32249 whole entry): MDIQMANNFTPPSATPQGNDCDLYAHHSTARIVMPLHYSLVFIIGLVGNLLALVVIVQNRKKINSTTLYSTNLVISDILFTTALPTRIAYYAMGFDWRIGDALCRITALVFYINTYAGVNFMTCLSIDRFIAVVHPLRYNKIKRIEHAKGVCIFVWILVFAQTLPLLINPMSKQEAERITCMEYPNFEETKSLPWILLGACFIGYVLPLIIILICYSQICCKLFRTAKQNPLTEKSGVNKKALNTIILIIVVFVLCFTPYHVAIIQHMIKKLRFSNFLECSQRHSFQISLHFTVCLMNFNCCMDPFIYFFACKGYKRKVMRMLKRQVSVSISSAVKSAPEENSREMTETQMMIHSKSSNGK

[11] = P. falciparum Dd2 growth inhibitors, dose response, SYBR Green, dry powder samples, set 9 (AID 1159568); type: functional, cell-based

Sequence of Kallikrein-7 (P49862 whole entry): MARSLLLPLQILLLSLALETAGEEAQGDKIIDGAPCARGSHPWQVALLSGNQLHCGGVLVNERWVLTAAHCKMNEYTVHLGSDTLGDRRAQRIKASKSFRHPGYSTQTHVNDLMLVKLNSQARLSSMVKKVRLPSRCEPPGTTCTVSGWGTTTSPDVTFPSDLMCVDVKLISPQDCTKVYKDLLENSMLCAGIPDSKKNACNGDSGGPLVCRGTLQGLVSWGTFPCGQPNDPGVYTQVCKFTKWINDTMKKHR

Structure (SMILES): COCCN1Cc2cc(O)n3c(nc4ccccc43)c2C1=N
EC50 (Kallikrein-7): > 69.5 µM (inactive)

Structure (SMILES): O=C(CSc1nnc(-c2cccs2)n1Cc1ccco1)Nc1ccc(Oc2ccccc2)cc1
IC50 [1]: > 69.5 µM (inactive) | IC50 [2]: > 69.5 µM (inactive)

Structure (SMILES): O=C(NC1CCCC1)C(c1ccco1)N(Cc1ccccc1)C(=O)c1csnn1 (stereo not drawn)
EC50 [3]: > 112 µM (not active) | EC50 [4]: > 112 µM (not active) | IC50 (Protein Tat): > 100 µM (active)

Structure (SMILES): CSc1ccc(C2NN=C(c3ccccc3)S2)cc1 (stereo not drawn)
EC50 (cells): > 67.6 µM (inactive) | EC50 [5]: > 67.6 µM (inactive)

Structure (SMILES): COc1ccc(Nc2nnc(-c3ccc(C(N)=O)cc3)c3ccccc23)cc1
AC50 [6]: 104 µM (active)

Structure (SMILES): CCOC(=O)c1cnn2c(C(F)(F)F)cc(-c3cn(C)nc3C)nc12
EC50 (Kallikrein-7): 33.2 µM (inactive)

Structure (SMILES): CCc1csc(N2[C@H](CO)[C@H](c3ccccc3)[C@@H]2CNC)n1
AC50 [11]: 7.33 µM (active)

Structure (SMILES): C[C@H](CO)N1C[C@H](C)[C@H](CN(C)S(=O)(=O)c2ccc(F)cc2)OCCCC[C@H](C)Oc2ccc(N(C)C)cc2C1=O
AC50 [11]: 5.45 µM (active)

Second part, the compound after the results:

IC50 [1]: > 69.6 µM (inactive) | IC50 [2]: > 69.6 µM (inactive)
Structure (SMILES): Cc1ccc(S(=O)(=O)N2CCC(=O)N2)cc1

IC50 [7]: 36.7 µM (active) | IC50 [8]: 52.1 µM (active)
Structure (SMILES): Nc1nc(COc2ccccc2C=O)nc(Nc2ccccc2)n1

AC50 [9]: 8.62 µM (active)
Structure (SMILES): CCOC(=O)c1cnc2c(C)c(Cl)ccc2c1NCCCN1CCOCC1

IC50 [10]: 0.743 µM (active)
Structure (SMILES): O=C(/C=C/c1cc(Br)ccc1F)N1CCN(S(=O)(=O)c2ccc(Br)cc2)CC1
